Data from publication PMC7463537, “Synthesis and Evaluation of Antimicrobial and Cytotoxic Activity of Oxathiine-Fused Quinone-Thioglucoside Conjugates of Substituted 1,4-Naphthoquinones” (Molecules, 2020).

How the values were obtained:
[1] = system: C. albicans KMM 453; experiment: Agar diffusion method, C. albicans; assay type: cell-based; details: Candida albicans, read-out: Diameter of Zone Inhibition, C. albicans; for zone of inhibition at 100 µg/disc: KMM453, 48 h, 100 µg/well, 48 h at 28 °C
Protocol: (§1) Elyakov Pacific Institute of Bioorganic Chemistry, Far East Branch, Russian Academy of Sciences. Test substances were dissolved in DMSO at concentrations of 1.0, 0.1, and 0.01 mg/mL. All strains were grown on trypticase-soy agar TSA (BBL) at 37 °C. […] After incubation of the dishes at 37 °C for 24 h (for bacteria) and 48 h (for the fungus) at 28 °C, the diameters of the growth inhibition zones of pathogenic microorganisms (mm) were measured, including the diameter of the wells. Commercial antibacterial drugs (vancomicin and gentamicin) and antifungal (clotrimazol) drugs were used as positive controls.

[2] = system: S. aureus ATCC 21027; experiment: Agar diffusion method, S. aureus; assay type: cell-based, Staphylococcus aureus; set-up: key to Diameter of Zone Inhibition, S. aureus: Zones within 20–40 mm mean strong antibiotic activity; zones up to 20 mm—moderate; ≤10 mm—weak; +—insignificant; details: for zone of inhibition at 100 µg/disc: ATCC21027, 24 h
Protocol: as §1

[3] = system: B. cereus ATCC 10702; experiment: Agar diffusion method, B. cereus; assay type: cell-based, Bacillus cereus; details: for zone of inhibition at 100 µg/disc: ATCC10702, 24 h, 100 µg/well, 24 h, incl. 7 mm well
Protocol: as §1

[4] = system: P. aeruginosa ATCC 27853; experiment: Agar diffusion method, P. aeruginosa; assay type: cell-based, Pseudomonas aeruginosa; details: for zone of inhibition at 100 µg/disc: ATCC27853, 100 µg/well
Protocol: as §1

[5] = system: E. coli K-12; experiment: Agar diffusion method, E. coli; assay type: cell-based, Escherichia coli
Protocol: as §1

[6] = system: human cervical cancer (HeLa); experiment: Cytotoxicity, MTT assay, HeLa cells; details: for EC50: Homo sapiens, HeLa, 24 h, read-out: Cytotoxicity (EC50), HeLa; for Selectivity Index (SI), HeLa: SI = EC50 (Jb6 Cl 41-5a normal cells)/EC50 (tumor cells)
[7] = system: mouse neuroblastoma (Neuro 2a); experiment: Cytotoxicity, MTT assay, Neuro 2a cells; details: for EC50: N2a, 24 h, read-out: Cytotoxicity (EC50), Neuro 2a; for Selectivity Index (SI), Neuro-2a: SI = EC50 (Jb6 Cl 41-5a normal cells)/EC50 (tumor cells)
[8] = Cytotoxicity, MTT assay, Jb6 Cl 41-5a normal epithelial cells; details: mouse, Jb6 Cl 41-5a normal epithelial cells
[9] = system: mouse ascites Ehrlich carcinoma; experiment: Cytotoxicity, nonspecific esterase (FDA) assay, ascites Ehrlich carcinoma cells; details: for EC50: Mus musculus, Ehrlich, 24 h, read-out: Cytotoxicity (EC50), Ascites Ehrlich Carcinoma; for Selectivity Index (SI), Ascitic Ehrlich Carcinoma: SI = EC50 (Jb6 Cl 41-5a normal cells)/EC50 (tumor cells)
[10] = Staphylococcus aureus, 100 µg/well, 24 h, incl. 7 mm well, read-out: Diameter of Zone Inhibition, S. aureus
[11] = Bacillus cereus, read-out: Diameter of Zone Inhibition, B. cereus
[12] = Pseudomonas aeruginosa, read-out: Diameter of Zone Inhibition, P. aeruginosa
[13] = Escherichia coli, K12, 100 µg/well, read-out: Diameter of Zone Inhibition, E. coli

Row | Compound | zone of inhibition at 100 µg/disc [2, 10] [mm] | zone of inhibition at 100 µg/disc [3, 11] [mm] | zone of inhibition at 100 µg/disc [4, 12] [mm] | zone of inhibition at 100 µg/disc [5, 13] [mm] | zone of inhibition at 100 µg/disc [1] [mm] | melting point | EC50 [6] [µM] | EC50 [7] [µM] | EC50 at 24 h [8] [µM] | EC50 [9] [µM] | Selectivity Index (SI), HeLa [6] | Selectivity Index (SI), Neuro-2a [7] | Selectivity Index (SI), Ascitic Ehrlich Carcinoma [9] | further results
1 | Clc1ccccc1C(c1ccccc1)(c1ccccc1)n1ccnc1 [Clotrimazol (disk), reference compound] |  |  |  |  |  |  |  |  |  |  |  |  |  | zone of inhibition at 10 µg/disc ([1]; KMM453, 10 µg (disk)): 15 ± 2 mm
2 | COc1ccc(OC)c2c1C(=O)C1=C(S[C@@H]3O[C@H](CO)[C@@H](O)[C@H](O)[C@H]3O1)C2=O [Compound 17a, (2R,3S,4S,4aR,12aS)-3,4-Dihydroxy-2-hydroxymethyl-7,10-dimethoxy-3,4,4a,12a-tetrahydro-2H-naphtho[2,3-b]pyrano[2,3-e][2,5]oxathiine-6,11-dione] | 0 | 0 | 0 | 0 | 0 | 332 to 335 °C | > 25 | > 25 | > 25 | > 25 |  |  |  | 
3 | COc1ccc(OC)c2c1C(=O)C1=C(S[C@@H]3OC[C@@H](O)[C@H](O)[C@H]3O1)C2=O [Compound 17c, (3R,4S,4aR,12aS)-3,4-Dihydroxy-7,10-dimethoxy-3,4,4a,12a-tetrahydro-2H-naphtho[2,3-b]pyrano[2,3-e][2,5]oxathiine-6,11-dione] | 0 | 0 | 0 | 0 | 0 | 329 to 332 °C | > 25 | > 25 | > 25 | > 25 |  |  |  | 
4 | COc1ccc(OC)c2c1C(=O)C1=C(S[C@@H]3OC[C@H](O)[C@H](O)[C@H]3O1)C2=O [Compound 17d, (3S,4S,4aR,12aS)-3,4-Dihydroxy-7,10-dimethoxy-3,4,4a,12a-tetrahydro-2H-naphtho[2,3-b]pyrano[2,3-e][2,5]oxathiine-6,11-dione] | 0 | 0 | 0 | 0 | ≤ 10 | 317 to 320 °C | > 25 | > 25 | > 25 | > 25 |  |  |  | 
5 | COc1c(Cl)c(Cl)c(OC)c2c1C(=O)C1=C(S[C@@H]3O[C@H](CO)[C@@H](O)[C@H](O)[C@H]3O1)C2=O [Compound 18a, (2R,3S,4S,4aR,12aS)-8,9-Dichloro-3,4-dihydroxy-2-hydroxymethyl-7,10-dimethoxy-3,4,4a,12a-tetrahydro-2H-naphtho[2,3-b]pyrano[2,3-e][2,5]oxathiine-6,11-dione] |  | 0 | 0 | 0 | 0 | 222 to 224 °C | 10.9 | 2.4 | 1.5 | 8.8 | 0.1 | 0.6 | 0.2 | Diameter of Zone Inhibition, S. aureus ([2]; 100 µg/well, 24 h, incl. 7 mm well): +
6 | COc1c(Cl)c(Cl)c(OC)c2c1C(=O)C1=C(S[C@@H]3O[C@H](CO)[C@H](O)[C@H](O)[C@H]3O1)C2=O [Compound 18b, (2R,3R,4S,4aR,12aS)-8,9-Dichloro-3,4-dihydroxy-2-(hydroxymethyl)-7,10-dimethoxy-3,4,4a,12a-tetrahydro-2H-naphtho[2,3-b]pyrano[2,3-e][2,5]oxathiine-6,11-dione] | 0 | 0 | 0 | 0 | 0 | 276 to 279 °C | 8 | 2.9 | 2.9 | 1.1 | 0.4 | 1 | 2.6 | 
7 | COc1c(Cl)c(Cl)c(OC)c2c1C(=O)C1=C(S[C@@H]3OC[C@@H](O)[C@H](O)[C@H]3O1)C2=O [Compound 18c, (3R,4S,4aR,12aS)-8,9-Dichloro-3,4-dihydroxy-7,10-dimethoxy-3,4,4a,12a-tetrahydro-2H-naphtho[2,3-b]pyrano[2,3-e][2,5]oxathiine-6,11-dione] | < 20 | < 20 | 0 | 0 | 0 | 277 to 279 °C | 10.1 | 4.1 | 3.8 | 4.5 | 0.4 | 0.9 | 0.8 | Diameter of Zone Inhibition, E. coli ([5]; 100 µg/well): not active
8 | COc1c(Cl)c(Cl)c(OC)c2c1C(=O)C1=C(S[C@@H]3OC[C@H](O)[C@H](O)[C@H]3O1)C2=O [Compound 18d, (3S,4S,4aR,12aS)-8,9-Dichloro-3,4-dihydroxy-7,10-dimethoxy-3,4,4a,12a-tetrahydro-2H-naphtho[2,3-b]pyrano[2,3-e][2,5]oxathiine-6,11-dione] | < 20 | < 20 | 0 | 0 | 0 | 286 to 289 °C | 8.7 | 2.8 | 4.3 | 4.1 | 0.5 | 1.5 | 1 | Diameter of Zone Inhibition, E. coli ([5]; 100 µg/well): not active
9 | O=C1C2=C(S[C@@H]3OC[C@@H](O)[C@H](O)[C@H]3O2)C(=O)c2c(O)cccc21 [Compound 19c, (3R,4S,4aR,12aS)-3,4,10-Trihydroxy-3,4,4a,12a-tetrahydro-2H-naphtho[2,3-b]pyrano[2,3-e][2,5]oxathiine-6,11-dione] | 8 ± 1 | 10 ± 2 | 0 | 0 | 0 | 348 to 350 °C (dec.) | 4.9 | 13.3 | 5.9 | 7.4 | 1.2 | 0.4 | 0.8 | 
10 | CNC(C)C1CCC(N)C(OC2C(N)CC(N)C(OC3OCC(C)(O)C(NC)C3O)C2O)O1 (stereo not shown) [Gentamicin (disk), reference compound] |  |  |  |  |  |  |  |  |  |  |  |  |  | zone of inhibition at 10 µg/disc ([2]; Staphylococcus aureus, ATCC21027, 10 µg/well (gentamicin: disk), read-out: Diameter of Zone Inhibition, S. aureus): 25 ± 2 mm; zone of inhibition at 10 µg/disc ([3]; Bacillus cereus, ATCC10702, 10 µg/well (gentamicin: disk), read-out: Diameter of Zone Inhibition, B. cereus): 25 ± 1 mm; zone of inhibition at 10 µg/disc ([4]; Pseudomonas aeruginosa, ATCC27853, 10 µg (disk), read-out: Diameter of Zone Inhibition, P. aeruginosa): 18 ± 2 mm; zone of inhibition at 10 µg/disc ([5]; Escherichia coli, K12, 10 µg (disk), read-out: Diameter of Zone Inhibition, E. coli): 22 ± 3 mm
11 | CN[C@H](CC(C)C)C(=O)N[C@H]1C(=O)N[C@@H](CC(N)=O)C(=O)N[C@H]2C(=O)N[C@H]3C(=O)N[C@H](C(=O)N[C@H](C(=O)O)c4cc(O)cc(O)c4-c4cc3ccc4O)[C@H](O)c3ccc(c(Cl)c3)Oc3cc2cc(c3O[C@@H]2O[C@H](CO)[C@@H](O)[C@H](O)[C@H]2O[C@H]2C[C@](C)(N)[C@H](O)[C@H](C)O2)Oc2ccc(cc2Cl)[C@H]1O [Vancomicin (disk), reference compound] |  |  |  |  |  |  |  |  |  |  |  |  |  | Diameter of Zone Inhibition, S. aureus ([2]; 30 µg (disk)): 20 ± 2 mm; Diameter of Zone Inhibition, B. cereus ([3]; 30 µg (disk)): 20 ± 3 mm; Diameter of Zone Inhibition, P. aeruginosa ([4]; 30 µg (disk)): 0 mm; Diameter of Zone Inhibition, E. coli ([5]; 30 µg (disk)): 0 mm
